{"source": "patent US12103919B2", "about": "“3-(5-oxy)-1-oxoisoindolin-2-yl)piperidine-2,6-dione derivatives and uses thereof” (NOVARTIS AG, priority 2021, dated 2024)", "key": {"SALL4": {"molecular_target": "T1, SALL4 (Homo sapiens, UniProt Q96SW2+Q9UJQ4)", "T1 construct": "expressed in transfected cells; host or cells: GripTite 293 MSR cells (293GT), ThermoFisher Scientific, stably transfected by electroporation, blasticidin-selected clones", "T1 sequence (Q9UJQ4 whole entry, the tested form may be a part)": "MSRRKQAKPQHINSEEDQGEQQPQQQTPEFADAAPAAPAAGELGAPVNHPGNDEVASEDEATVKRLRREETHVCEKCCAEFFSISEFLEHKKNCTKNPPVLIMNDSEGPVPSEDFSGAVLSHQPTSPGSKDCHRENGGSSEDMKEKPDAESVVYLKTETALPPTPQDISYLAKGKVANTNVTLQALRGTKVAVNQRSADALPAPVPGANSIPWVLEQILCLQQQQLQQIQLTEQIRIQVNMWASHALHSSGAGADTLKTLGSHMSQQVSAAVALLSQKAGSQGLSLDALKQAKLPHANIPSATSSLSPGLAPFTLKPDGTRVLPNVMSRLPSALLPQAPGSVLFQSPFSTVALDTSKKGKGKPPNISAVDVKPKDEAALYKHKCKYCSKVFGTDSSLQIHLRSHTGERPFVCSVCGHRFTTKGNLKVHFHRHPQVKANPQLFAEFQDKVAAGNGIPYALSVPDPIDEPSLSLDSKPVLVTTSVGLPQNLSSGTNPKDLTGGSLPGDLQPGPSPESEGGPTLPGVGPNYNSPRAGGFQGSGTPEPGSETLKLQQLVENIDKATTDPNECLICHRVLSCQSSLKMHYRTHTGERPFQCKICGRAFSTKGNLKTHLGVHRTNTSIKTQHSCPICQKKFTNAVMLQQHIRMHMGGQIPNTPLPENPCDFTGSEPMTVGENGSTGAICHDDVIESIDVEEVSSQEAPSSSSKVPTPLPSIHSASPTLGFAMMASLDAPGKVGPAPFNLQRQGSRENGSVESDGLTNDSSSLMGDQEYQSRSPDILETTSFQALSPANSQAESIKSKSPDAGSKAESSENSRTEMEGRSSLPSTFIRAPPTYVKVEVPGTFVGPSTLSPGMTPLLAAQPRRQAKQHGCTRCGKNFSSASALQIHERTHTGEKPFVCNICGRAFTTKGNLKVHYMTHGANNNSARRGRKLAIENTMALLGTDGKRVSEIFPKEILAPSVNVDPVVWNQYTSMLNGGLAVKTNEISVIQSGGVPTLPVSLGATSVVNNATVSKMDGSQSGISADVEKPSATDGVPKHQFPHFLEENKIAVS", "T1 sequence (Q96SW2 whole entry, the tested form may be a part)": "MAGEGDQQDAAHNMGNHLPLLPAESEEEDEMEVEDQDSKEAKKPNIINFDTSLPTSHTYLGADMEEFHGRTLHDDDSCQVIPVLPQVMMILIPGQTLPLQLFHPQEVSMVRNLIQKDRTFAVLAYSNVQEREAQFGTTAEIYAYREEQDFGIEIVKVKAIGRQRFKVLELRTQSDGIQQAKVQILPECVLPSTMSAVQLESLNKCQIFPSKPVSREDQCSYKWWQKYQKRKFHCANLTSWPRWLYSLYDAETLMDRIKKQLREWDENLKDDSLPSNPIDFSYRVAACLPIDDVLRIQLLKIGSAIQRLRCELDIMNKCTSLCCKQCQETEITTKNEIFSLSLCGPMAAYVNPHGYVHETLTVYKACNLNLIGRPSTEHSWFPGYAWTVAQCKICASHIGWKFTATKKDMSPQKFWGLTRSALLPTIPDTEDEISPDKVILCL", "T1 sequence (Q16531 whole entry partner, the tested form may be a part)": "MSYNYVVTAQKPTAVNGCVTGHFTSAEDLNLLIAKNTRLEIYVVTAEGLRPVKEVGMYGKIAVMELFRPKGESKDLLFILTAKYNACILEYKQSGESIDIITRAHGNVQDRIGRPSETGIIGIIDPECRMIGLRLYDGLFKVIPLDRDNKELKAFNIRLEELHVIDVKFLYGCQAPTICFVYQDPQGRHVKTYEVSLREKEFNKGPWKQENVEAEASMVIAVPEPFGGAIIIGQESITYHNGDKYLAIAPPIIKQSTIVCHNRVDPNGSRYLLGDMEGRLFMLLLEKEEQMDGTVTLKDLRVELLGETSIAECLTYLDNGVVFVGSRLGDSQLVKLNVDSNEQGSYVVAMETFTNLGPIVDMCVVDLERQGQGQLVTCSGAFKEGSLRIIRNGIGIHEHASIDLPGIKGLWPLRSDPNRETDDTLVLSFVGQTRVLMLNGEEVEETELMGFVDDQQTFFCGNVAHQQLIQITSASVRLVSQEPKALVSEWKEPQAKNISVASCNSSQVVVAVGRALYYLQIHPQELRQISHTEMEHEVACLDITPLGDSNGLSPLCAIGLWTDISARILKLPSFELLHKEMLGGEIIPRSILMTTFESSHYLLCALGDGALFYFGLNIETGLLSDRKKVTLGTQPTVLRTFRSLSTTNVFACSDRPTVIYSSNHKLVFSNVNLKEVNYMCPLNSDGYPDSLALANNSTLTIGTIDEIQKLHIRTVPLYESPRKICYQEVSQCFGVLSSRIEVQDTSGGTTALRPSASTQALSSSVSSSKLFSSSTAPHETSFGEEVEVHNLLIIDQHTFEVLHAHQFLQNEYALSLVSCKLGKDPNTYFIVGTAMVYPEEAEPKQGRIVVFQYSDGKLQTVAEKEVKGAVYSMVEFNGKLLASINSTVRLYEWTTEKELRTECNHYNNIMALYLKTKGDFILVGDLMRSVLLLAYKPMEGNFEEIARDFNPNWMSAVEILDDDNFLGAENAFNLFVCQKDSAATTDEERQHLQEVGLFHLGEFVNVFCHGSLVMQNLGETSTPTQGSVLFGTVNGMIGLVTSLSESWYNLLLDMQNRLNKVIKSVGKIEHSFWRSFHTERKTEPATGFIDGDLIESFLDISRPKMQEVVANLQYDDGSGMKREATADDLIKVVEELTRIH", "experiment": "Quantification of SALL4 protein levels in HiBiT tag fusion protein assay", "assay_type": "cell-based", "procedure": "The HiBiT system from Promega was used to develop high-throughput and quantitative assays to measure changes in SALL4 protein levels in response to compounds. The HiBiT tag was derived from a split Nanoluciferase and has the following protein sequence: […] (SEQ ID No: 1). The complementary fragment of Nanoluciferase (known as LgBiT, from Promega), was added to the HiBiT tag to form an active Nanoluciferase enzyme whose activity can be precisely measured. In this way, the levels of a fusion protein with the HiBiT tag can be quantified in cell lysates.\nDNA constructs, based on the Invitrogen pLenti6.2/V5 DEST backbone, were constructed with the HiBiT tag upstream of SALL4 and expressed the fusion protein from a CMV promotor.\nTo ensure moderate and consistent expression of the HiBiT-SALL4 fusion protein across all cells in the population, stable cell lines were derived from clones. GripTite 293 MSR cells (293GT) from ThermoFisher Scientific (Catalog number: CRL-R79507), were stably transfected with prepared constructs via electroporation. Following recovery, cells were selected by 10 ug/mL blasticidin in culture media.\nThe levels of HiBiT-SALL4 tagged fusion proteins in compound-treated cell lines were measured as follows:\nOn day 1, cells were diluted to 1.0×10^6 cells/ml in normal growth medium. 20 μL of cell suspension were plated in each well of a solid white 384-well plate. Plates were incubated overnight in a 37° C. and 5% CO2 humidified tissue culture incubator.\nOn day 2, serial dilutions of compounds were made in 384-well plates. Compound plates were set up with DMSO in columns 1, 2, 23, 24, and 10-point compound dilution series in column 3-12 and column 13-22. 10 mM stock solution of compound were placed into column 3 or 13 and a 1:5 serial dilution was carried out until there was a 10-point dilution series per compound. 100 nL of diluted compounds were transferred into the plated cells by Echo® (Labcyte) acoustic transfer. The highest concentration of compound was 50 μM. Plates were incubated overnight (18 hours) in a 37° C. and 5% CO2 humidified tissue culture incubator.\nOn day 3, plates were removed from the incubator and allowed to equilibrate at room temperature for 60 minutes. HiBiT substrate (Nano-Glo® HiBit Lytic Detection System, Promega Catalogue number: N3050) was added as described by the manufacturers protocols. Plates were incubated at room temperature for 30 minutes and luminescence was read using an EnVision® reader (PerkinElmer®). Data was analyzed and visualized using the Spotfire® software package.\nSALL4 Amax reflects the DMSO-normalized, curve-fitted percentage of SALL4-HiBiT remaining at 50 uM. It was calculated by normalizing DMSO controls to 100%, parametric curve fitting of the dose response data (10-point, 5-fold), followed by calculation of response at 50 uM using the fitted equation.\nThis assay produced a range of SALL4 AC50 and Amax values over several repeat runs due to normal variations in the assay. For a comparison to the compounds described in PCT/IB2020/062070, the arithmatic mean values are reported over the number of repeats specified. […] The compounds of the present disclosure are therefore expected to have improved toxicological properties (Matyskiela, M. E., Couto, S., Zheng, X. et al. SALL4 mediates teratogenicity as a thalidomide-dependent cereblon substrate. Nat Chem Biol 14, 981-987 (2018); Donovan, K. A. et al. Thalidomide promotes degradation of SALL4, a transcription factor Implicated in Duane Radial Ray syndrome. eLife 2018; 7:e38430)."}, "Fetal Hemoglobin (HbF)": {"test_system": "Fetal Hemoglobin (HbF)", "experiment": "Small molecule HbF induction assay in erythroid-differentiated mPB CD34+ cells (flow cytometry)", "assay_type": "cell-based, human", "settings": "highest percentage of cells staining positive for HbF (% HbF+ cells) in fitted dose-response curve; DMSO baseline approximately 30-40%", "procedure": "Cryopreserved primary human CD34^+ hematopoietic stem and progenitor cells were obtained from AllCeIIs, LLC. The CD34^+ cells were isolated from the peripheral blood of healthy donors after mobilization by administration of granulocyte colony-stimulating factor. Cells were differentiated ex vivo toward the erythroid lineage using a 2-phase culture method. In the first phase, cells were cultured in Stemspan™ Serum-Free Expansion Media (SFEM) ([…] Technologies Inc.) supplemented with rhSCF (50 ng/mL, Peprotech®, Inc.), rhlL-6 (50 ng/mL, Peprotech®, Inc.), rhlL-3 (50 ng/mL, Peprotech®, Inc.), and rhFlt3L (50 ng/mL, Peprotech®, Inc.), and 1× antibiotic-antimycotic (Life Technologies, Thermo Fisher Scientific) for 6 days at 37° C. with 5% CO2. During the second phase, cells were cultured in erythroid differentiation media at 5,000 cells/mL in the presence of compound for 7 days at 37° C. with 5% […]. Erythroid Differentiation Media is comprised of IMDM (Life Technologies) supplemented with insulin (10 μg/mL. Sigma Aldrich), heparin (2 U/mL Sigma Aldrich), holo-transferrin (330 μg/mL, Sigma Aldrich), human serum AB (5%, Sigma Aldrich), hydrocortisone (1 μM, […] Technologies), rhSCF (100 ng/mL, Peprotech®, Inc.), rhIL-3 (5 ng/mL. Peprotech®, Inc.), rhEPO (3 U/mL, Peprotech®, Inc.), and 1× antibiotic-antimycotic. All compounds were dissolved and diluted into dimethylsulfoxide (DMSO) and were added to culture media for a final concentration of 0.3% DMSO for testing in a 10-point, 1:3 dilution series starting at 10 uM.\nFor viability analysis, samples were washed and resuspended in phosphate-buffered saline (PBS) and stained with LlVE/DEAD™ Fixable Violet Dead Cell Stain Kit (Life Technologies, L34963) for 20 minutes. Cells were then washed again with PBS and resuspended in PBS supplemented with 2% fetal bovine serum (FBS), and 2 mM EDTA to prepare for cell surface marker analysis. […]\nmPB CD34+ cells were expanded for 6 days, then erythroid differentiated in the presence of compound for 7 days. Cells were fixed, stained and analyzed by flow cytometry. […]"}}, "data": [{"compound": "CCN1CCC[C@@H](Oc2ccc3c(c2)CN(C2CCC(=O)NC2=O)C3=O)C1", "note": "(mixture of isomers) [Example 1, 3-(5-(((R)-1-ethylpiperidin-3-yl)oxy)-1-oxoisoindolin-2-yl)piperidine-2,6-dione]", "values": [{"measurement": "SALL4 Amax", "setting": "SALL4; DMSO-normalized, curve-fitted percentage of SALL4-HiBiT remaining at 50 uM, mean over repeats", "result": 72.21, "unit": "%"}, {"measurement": "DC50", "setting": "SALL4; arithmatic mean over number of repeats, 18 hours, top 50 μM, read-out: SALL4 AC50", "result": 49, "unit": "nM"}, {"measurement": "HbF Amax", "setting": "Fetal Hemoglobin (HbF)", "result": 66.5, "unit": "%"}]}]}
